{
  "source": "patent US7754753B2",
  "about": "“Analgesic and anti-inflammatory compositions containing Cox-2-inhibitors” (Wyeth LLC, priority 2000, dated 2010)",
  "test_system": "Male Swiss mice",
  "test": "acetic acid-induced writhing test (mouse writhing model)",
  "assay_type": "in vivo",
  "details": "for oral A50 value (antinociceptive dose-response): +30 minutes before acetic acid, 95% confidence limits for ibuprofen 17.57-40.58",
  "protocol": "A modification of the acetic acid-induced writhing test (as disclosed in Porreca, F., H. I. Mosberg, J. R. Omnaas, T. F. Burks and A. Cowan in Supraspinal and spinal potency of selective opioid agonists in the mouse writhing test (Journal of Pharmacology and Experimental Therapeutics 240: 890-894, 1987)) was conducted. The mouse writhing model as described is commonly used to investigate analgesic efficacy and potential synergism with combinations of drugs.\nMale Swiss mice weighing 25-30 g were obtained from Ace Laboratories. They were each placed in individual rectangular observation boxes and allowed to acclimate for at least 1 hour. A placebo vehicle of 1% Tween 80/water was prepared.\nGroups of 8-10 mice each received the test agent or placebo vehicle (in an amount of 0.25 ml/25 grams of body weight) orally via stomach tube. Those mice that received the placebo vehicle composed the control group. After 20, 30, 40 or 60 minutes, each mouse was injected parenterally with a 0.6% acetic acid solution (0.25 ml/25 g body weight).\nPercent inhibition of writhing was expressed as: (Means writhes in control group)−(Writhes by individual mouse)×100/(Mean writhes in control group)\nA preliminary study was conducted at +30 minutes to establish antinociceptive dose-response curves for ibuprofen (obtained from Sigma Chemical) and celecoxib (manufactured by G.D. Searle & Co. in 200 mg capsules and marketed under the trademark Celebrex®), respectively.\nA second group of mice (n=8-10) received […] of ibuprofen followed immediately by the placebo vehicle. At either +20, +40 or +60 minutes following administration, the animals were injected i.p. with 0.6% acetic acid (0.25 ml/25 g body weight) and run in the writhing test.",
  "key": {"[1]": {"details": "dose 20 mg/kg oral, +30 minutes"}, "[2]": {"details": "dose 40 mg/kg oral, +30 minutes"}, "[3]": {"details": "dose 80 mg/kg oral, +30 minutes"}},
  "data": [
    {"smiles": "Cc1ccc(-c2cc(C(F)(F)F)nn2-c2ccc(S(N)(=O)=O)cc2)cc1", "note": "[Celecoxib, 4-[5-(4-methylphenyl)-3-(trifluoromethyl)-1H-pyrazol-1-yl]benzenesulfonamide]", "values": [
      {"measurement": "effect of celecoxib on ibuprofen analgesia in words", "setting": "celecoxib 20 mg/kg given with ibuprofen 29 mg/kg, +20 to +60 min", "value": "potentiated the ibuprofen through faster onset and duration of action"},
      {"measurement": "antinociceptive activity in words", "setting": "celecoxib 20 mg/kg oral alone", "value": "essentially inactive"},
      {"measurement": "Mean % inhibition + s.e.m. (writhing)", "setting": "[1]", "value": "7.5 ± 3.38", "unit": "%"},
      {"measurement": "Mean % inhibition + s.e.m. (writhing)", "setting": "[2]", "value": "21.7 ± 4.17", "unit": "%"},
      {"measurement": "Mean % inhibition + s.e.m. (writhing)", "setting": "[3]", "value": "28.3 ± 8.34", "unit": "%"},
      {"measurement": "oral A50 value (antinociceptive dose-response)", "setting": "oral", "value": "> 80", "unit": "mg/kg"}
    ]},
    {"smiles": "CC(C)Cc1ccc(C(C)C(=O)O)cc1", "note": "(stereo not shown) [Ibuprofen, ibuprofen]", "values": [
      {"measurement": "Mean % inhibition + s.e.m. (writhing)", "setting": "[1]", "value": "38.7 ± 11.2", "unit": "%"},
      {"measurement": "Mean % inhibition + s.e.m. (writhing)", "setting": "[2]", "value": "59.4 ± 9.58", "unit": "%"},
      {"measurement": "Mean % inhibition + s.e.m. (writhing)", "setting": "[3]", "value": "74.0 ± 4.68", "unit": "%"},
      {"measurement": "oral A50 value (antinociceptive dose-response)", "setting": "oral", "value": 29.07, "unit": "mg/kg"},
      {"measurement": "Mean % inhibition + s.e.m. (writhing)", "setting": "time 20 min, ibuprofen 29 mg/kg followed immediately by celecoxib 20 mg/kg or placebo vehicle, oral", "value": "36.4 ± 3.2", "unit": "%"},
      {"measurement": "Mean % inhibition + s.e.m. (writhing)", "setting": "time 40 min, ibuprofen 29 mg/kg followed immediately by celecoxib 20 mg/kg or placebo vehicle, oral", "value": "14.1 ± 6.2", "unit": "%"},
      {"measurement": "Mean % inhibition + s.e.m. (writhing)", "setting": "time 60 min, ibuprofen 29 mg/kg followed immediately by celecoxib 20 mg/kg or placebo vehicle, oral", "value": "27.3 ± 8.2", "unit": "%"}
    ]}
  ]
}
